Here are results for nine compounds from US10175229B2, “Rapid method for measuring cytotoxicity in non-RI system” (NAGASAKI UNIVERSITY, priority 2014, dated 2019).

In the test the test system is Histiocytoma U937 cells. Put plainly: Spontaneous and maximum release of labeled compound, time-resolved fluorometric assay (Eu assay). In kind it is cell-based. The following applies: for maximum release (B) / spontaneous release (A): U937 cells labeled with 25 μM compound for 15 min; for maximum release (B): lysed with 0.125% digitonin in 19% DMSO, time-resolved fluorescence with europium solution; for spontaneous release (A): supernatant added to europium solution, time-resolved fluorescence, wells without digitonin; for spontaneous release (%) (C) (100 × A/B): U937 cells, 25 μM compound, ratio of spontaneous to maximum release. How it is done:
Histiocytoma U937 cells were cultured in 30 mL of RPMI1640 medium under the conditions of 37° C., 5% CO2 overnight, the culture medium (30 mL) was placed in a 50 mL conical tube, and the cell number was counted. After centrifugation at 1700 rpm at 4° C. for 5 min, the supernatant was removed, and the cell pellets were resuspended in RPMI1640 medium at 1×10^6 cells/mL. To the cell suspension (1 mL) in a 15 mL conical tube was added 2.5 μL of a compound represented by the formula (I) or a salt thereof (10 mM stock solution) (final concentration: 25 μM), and the mixture was incubated under the conditions of 37° C., 5% CO2 for 15 min. The cells were washed 3 times with 5 mL of RPMI1640 medium, and resuspended in 5 mL of RPMI1640 medium. The cell suspension (2 mL) was placed in a 15 mL conical tube containing 6 mL of RPMI1640 medium to adjust the cell concentration to 5×10^3 cells/100 μL. The cell suspension (100 μL) was seeded in 6 wells of a 96 flat bottom plate. 100 μL of RPMI1640 medium was added to wells for determining the amount of spontaneous release, and 90 μL of RPMI1640 medium was added to wells for determining the amount of maximum release. The plates were centrifuged at 500 rpm, room temperature for 2 min and incubated under 37° C., 5% CO2 condition for 30 min. A newly-prepared 0.125% digitonin solution in 19% DMSO (mixed solution of 3 mg digitonin, 0.456 mL DMSO and 1.944 mL H2O) (10 μL) was added to the aforementioned wells for determining the amount of maximum release, mixed well and further incubated for 30 min. After incubation, the cell suspension was mixed well again, and centrifuged at 1700 rpm, room temperature for 2 min. After the centrifugation, the supernatant (25 μL) was carefully transferred into wells containing 250 μL of europium solution in a 96 flat bottom plate, and 200 μL of the solution thereof was placed in a 96-well flat bottom plate.
The plate was allowed to stand for 15 min, and the time-resolved fluorescence was measured by ARVO multiplate reader.

In the case of `CC(=O)OCOC(=O)c1cccc(-c2cccc(-c3cccc(C(=O)OCOC(C)=O)n3)n2)n1` [BATDA, bis(acetoxymethyl) 2,2′:6′,2″-terpyridine-6,6″-dicarboxylate, reference compound], the “maximum release (B)” value worked out at 86785, the “spontaneous release (A)” value is recorded as 14795 and the “spontaneous release (%) (C) (100 × A/B)” value was determined as 17%.

Take `CCCC(=O)OCOC(=O)c1cccc(-c2cc(OCCO)cc(-c3cccc(C(=O)OCOC(=O)CCC)n3)n2)n1` [Example 1, bis(butyryloxymethyl) 4′-(2-hydroxyethoxy)-2,2′:6′,2″-terpyridine-6,6″-dicarboxylate]: the “maximum release (B)” value is 65576, the “spontaneous release (A)” value came to 6347 and the “spontaneous release (%) (C) (100 × A/B)” value is on record as 9.7%.

As to `CCCNC(=O)COc1cc(-c2cccc(C(=O)OCOC(C)=O)n2)nc(-c2cccc(C(=O)OCOC(C)=O)n2)c1` [Example 2, bis(acetoxymethyl) 4′-(2-oxo-2-(propylamino)ethoxy)-2,2′:6′,2″-terpyridine-6,6″-dicarboxylate], the “maximum release (B)” value turned out to be 60521, the “spontaneous release (A)” value came out at 7085 and the “spontaneous release (%) (C) (100 × A/B)” value turned out to be 11.7%.

As to `CC(=O)OCOC(=O)c1cccc(-c2cc(OCCO)cc(-c3cccc(C(=O)OCOC(C)=O)n3)n2)n1` [Example 3, bis(acetoxymethyl) 4′-(2-hydroxyethoxy)-2,2′:6′,2″-terpyridine-6,6″-dicarboxylate], the “maximum release (B)” value worked out at 69372, the “spontaneous release (A)” value is 4890 and the “spontaneous release (%) (C) (100 × A/B)” value worked out at 7%.

As for `CCCC(=O)OCOC(=O)c1cccc(-c2cc(OCC=O)cc(-c3cccc(C(=O)OCOC(=O)CCC)n3)n2)n1` [Example 4, bis(butyryloxymethyl) 4′-(2-oxyethoxy)-2,2′:6′,2″-terpyridine-6,6″-dicarboxylate], the “maximum release (B)” value amounted to 43224, the “spontaneous release (A)” value is 3590 and the “spontaneous release (%) (C) (100 × A/B)” value is listed as 8.3%.

On to `CCC(=O)OCOC(=O)c1cccc(-c2cc(OCCO)cc(-c3cccc(C(=O)OCOC(=O)CC)n3)n2)n1` [Example 5, bis(propionyloxymethyl) 4′-(2-hydroxyethoxy)-2,2′:6′,2″-terpyridine-6,6″-dicarboxylate], for which the “maximum release (B)” value was 78831, the “spontaneous release (A)” value is 6991 and the “spontaneous release (%) (C) (100 × A/B)” value worked out at 8.9%.

`CCCC(=O)OCOC(=O)c1cccc(-c2cc(OCCCO)cc(-c3cccc(C(=O)OCOC(=O)CCC)n3)n2)n1` [Example 6, bis(butyryloxymethyl) 4′-(3-hydroxypropoxy)-2,2′:6′,2″-terpyridine-6,6″-dicarboxylate]: the “maximum release (B)” value came to 103235, the “spontaneous release (A)” value came out at 9538 and the “spontaneous release (%) (C) (100 × A/B)” value turned out to be 9.2%.

`CCCC(=O)OCOC(=O)c1cccc(-c2cc(OCCOCCO)cc(-c3cccc(C(=O)OCOC(=O)CCC)n3)n2)n1` [Example 7, bis(butyryloxymethyl) 4′-(2-(2-hydroxyethoxy)ethoxy)-2,2′:6′,2″-terpyridine-6,6″-dicarboxylate]: the “maximum release (B)” value stood at 63594, the “spontaneous release (A)” value is 6133 and the “spontaneous release (%) (C) (100 × A/B)” value is on record as 9.6%.

Turning to `CC(=O)OCOC(=O)c1cccc(-c2cc(CO)cc(-c3cccc(C(=O)OCOC(C)=O)n3)n2)n1` [Example 9, bis(acetoxymethyl) 4′-(hydroxymethyl)-2,2′:6′,2″-terpyridine-6,6″-dicarboxylate], the “maximum release (B)” value worked out at 127955, the “spontaneous release (A)” value is given as 21343 and the “spontaneous release (%) (C) (100 × A/B)” value is 16.7%.
